{"source": "patent US20220125765A1", "about": "“PHARMACEUTICAL COMBINATIONS COMPRISING MEBENDAZOLE AND A STRONG OR MODERATE CYP1A2 INHIBITOR” (ZEPHAPHARM LTD, priority 2019, published 2022)", "format_in_all_cases": "cell-based", "key": {"SXFS TE671": {"system": "SXFS TE671", "test": "2D monolayer CellTiter-Blue viability, soft tissue sarcoma TE671", "conditions": "72 h", "description": "(§1) Seventeen compounds, including mebendazole (Batch no. […] Efficacy of compounds was assessed using CellTiter-Blue® Cell Viability Assay. Anti-tumor activity is expressed as absolute and relative IC50 and IC70 values, calculated by non-linear regression analysis."}, "NBXF KELLY": {"system": "NBXF KELLY", "test": "2D monolayer CellTiter-Blue viability, neuroblastoma KELLY", "conditions": "72 h", "description": "as §1"}, "SXFS RH-30": {"system": "SXFS RH-30", "test": "2D monolayer CellTiter-Blue viability, soft tissue sarcoma RH-30", "conditions": "72 h", "description": "as §1"}, "[1]": {"system": "6 ovarian cancer (OVXF) and 6 renal cancer (RXF) cell lines", "test": "2D monolayer CellTiter-Blue viability, panel geometric mean (Example 10)", "conditions": "12 cell lines, 72 h", "description": "Mebendazole was tested in vitro across a panel of 12 tumor cell lines of ovarian and renal cancer by using a 2D monolayer assay. […] OVXF 899L and RXF 486L are P-gp expressing, multidrug resistant cell lines.\nAnti-tumor activity is expressed as absolute and relative IC50/70 values, calculated by 4-parameter non-linear curve fit."}, "SXFE RD-ES": {"system": "SXFE RD-ES", "test": "2D monolayer CellTiter-Blue viability, Ewing sarcoma RD-ES", "conditions": "72 h", "description": "as §1"}, "NBXF SK-N-AS": {"system": "NBXF SK-N-AS", "test": "2D monolayer CellTiter-Blue viability, neuroblastoma SK-N-AS", "conditions": "72 h", "description": "as §1"}, "[2]": {"system": "8 neuroblastoma and 13 sarcoma derived cell lines", "test": "2D monolayer CellTiter-Blue viability, panel geometric mean (Example 9)", "conditions": "21 cell lines, 72 hours", "description": "as §1"}, "SXFS RH-41": {"system": "SXFS RH-41", "test": "2D monolayer CellTiter-Blue viability, soft tissue sarcoma RH-41", "conditions": "72 h", "description": "as §1"}}, "note": "pIC50: −log10 of the molar value. Like-named read-outs stand apart in the source and are kept apart here."}
{"smiles": "COC(=O)Nc1nc2ccc(C(=O)c3ccccc3)cc2[nH]1", "note": "[Mebendazole, methyl N-(6-benzoyl-1H-benzimidazol-2-yl)carbamate]", "values": [{"measurement": "Test/Control (%) at Drug Concentration", "setting": "SXFS TE671; TE671, 3.2E−01 μM", "result": 45, "unit": "%"}, {"measurement": "Test/Control (%) at Drug Concentration", "setting": "SXFS TE671; TE671, 3.2E−02 μM", "result": 85, "unit": "%"}, {"measurement": "Test/Control (%) at Drug Concentration", "setting": "SXFS TE671; TE671, 3.2E−03 μM", "result": 80, "unit": "%"}, {"measurement": "Test/Control (%) at Drug Concentration", "setting": "NBXF KELLY; 1.0E+00 μM", "result": 6, "unit": "%"}, {"measurement": "Test/Control (%) at Drug Concentration", "setting": "NBXF KELLY; 1.0E+01 μM", "result": "−1", "unit": "%"}, {"measurement": "Test/Control (%) at Drug Concentration", "setting": "NBXF KELLY; 1.0E+02 μM", "result": "−1", "unit": "%"}, {"measurement": "Test/Control (%) at Drug Concentration", "setting": "NBXF KELLY; 1.0E−01 μM", "result": 91, "unit": "%"}, {"measurement": "Test/Control (%) at Drug Concentration", "setting": "NBXF KELLY; 1.0E−02 μM", "result": 99, "unit": "%"}, {"measurement": "Test/Control (%) at Drug Concentration", "setting": "NBXF KELLY; 3.2E+00 μM", "result": "−1", "unit": "%"}, {"measurement": "Test/Control (%) at Drug Concentration", "setting": "NBXF KELLY; 3.2E+01 μM", "result": "−1", "unit": "%"}, {"measurement": "Test/Control (%) at Drug Concentration", "setting": "NBXF KELLY; 3.2E−01 μM", "result": 75, "unit": "%"}, {"measurement": "Test/Control (%) at Drug Concentration", "setting": "NBXF KELLY; 3.2E−02 μM", "result": 99, "unit": "%"}, {"measurement": "Test/Control (%) at Drug Concentration", "setting": "NBXF KELLY; 3.2E−03 μM", "result": 106, "unit": "%"}, {"measurement": "Test/Control (%) at Drug Concentration", "setting": "SXFS RH-30; RH-30, 1.0E+00 μM", "result": 19, "unit": "%"}, {"measurement": "Test/Control (%) at Drug Concentration", "setting": "SXFS RH-30; RH-30, 1.0E+01 μM", "result": 20, "unit": "%"}, {"measurement": "Test/Control (%) at Drug Concentration", "setting": "SXFS RH-30; RH-30, 1.0E+02 μM", "result": 5, "unit": "%"}, {"measurement": "Test/Control (%) at Drug Concentration", "setting": "SXFS RH-30; RH-30, 1.0E−01 μM", "result": 89, "unit": "%"}, {"measurement": "Test/Control (%) at Drug Concentration", "setting": "SXFS RH-30; RH-30, 1.0E−02 μM", "result": 104, "unit": "%"}, {"measurement": "Test/Control (%) at Drug Concentration", "setting": "SXFS RH-30; RH-30, 3.2E+00 μM", "result": 21, "unit": "%"}, {"measurement": "Test/Control (%) at Drug Concentration", "setting": "SXFS RH-30; RH-30, 3.2E+01 μM", "result": 13, "unit": "%"}, {"measurement": "Test/Control (%) at Drug Concentration", "setting": "SXFS RH-30; RH-30, 3.2E−01 μM", "result": 20, "unit": "%"}, {"measurement": "Test/Control (%) at Drug Concentration", "setting": "SXFS RH-30; RH-30, 3.2E−02 μM", "result": 95, "unit": "%"}, {"measurement": "Test/Control (%) at Drug Concentration", "setting": "SXFS RH-30; RH-30, 3.2E−03 μM", "result": 111, "unit": "%"}, {"measurement": "Geometric mean Abs. IC70", "setting": "[1]", "result": 1.515, "unit": "µM"}, {"measurement": "Geometric mean Rel. IC70", "setting": "[1]", "result": 0.801, "unit": "µM"}, {"measurement": "pIC50", "setting": "[1]; read-out: Geometric mean Abs. IC50", "result": 6.03}, {"measurement": "pIC50", "setting": "[1]; read-out: Geometric mean Rel. IC50", "result": 6.23}, {"measurement": "Test/Control (%) at Drug Concentration", "setting": "SXFE RD-ES; 1.0E+00 μM", "result": 14, "unit": "%"}, {"measurement": "Test/Control (%) at Drug Concentration", "setting": "SXFE RD-ES; 1.0E+01 μM", "result": 6, "unit": "%"}, {"measurement": "Test/Control (%) at Drug Concentration", "setting": "SXFE RD-ES; 1.0E+02 μM", "result": 3, "unit": "%"}, {"measurement": "Test/Control (%) at Drug Concentration", "setting": "SXFE RD-ES; 1.0E−01 μM", "result": 78, "unit": "%"}, {"measurement": "Test/Control (%) at Drug Concentration", "setting": "SXFE RD-ES; 1.0E−02 μM", "result": 88, "unit": "%"}, {"measurement": "Test/Control (%) at Drug Concentration", "setting": "SXFE RD-ES; 3.2E+00 μM", "result": 7, "unit": "%"}, {"measurement": "Test/Control (%) at Drug Concentration", "setting": "SXFE RD-ES; 3.2E+01 μM", "result": 5, "unit": "%"}, {"measurement": "Test/Control (%) at Drug Concentration", "setting": "SXFE RD-ES; 3.2E−01 μM", "result": 29, "unit": "%"}, {"measurement": "Test/Control (%) at Drug Concentration", "setting": "SXFE RD-ES; 3.2E−02 μM", "result": 84, "unit": "%"}, {"measurement": "Test/Control (%) at Drug Concentration", "setting": "SXFE RD-ES; 3.2E−03 μM", "result": 93, "unit": "%"}, {"measurement": "Test/Control (%) at Drug Concentration", "setting": "NBXF SK-N-AS; 1.0E+00 μM", "result": 31, "unit": "%"}, {"measurement": "Test/Control (%) at Drug Concentration", "setting": "NBXF SK-N-AS; 1.0E+01 μM", "result": 21, "unit": "%"}, {"measurement": "Test/Control (%) at Drug Concentration", "setting": "NBXF SK-N-AS; 1.0E+02 μM", "result": 8, "unit": "%"}, {"measurement": "Test/Control (%) at Drug Concentration", "setting": "NBXF SK-N-AS; 1.0E−01 μM", "result": 62, "unit": "%"}, {"measurement": "Test/Control (%) at Drug Concentration", "setting": "NBXF SK-N-AS; 1.0E−02 μM", "result": 91, "unit": "%"}, {"measurement": "Test/Control (%) at Drug Concentration", "setting": "NBXF SK-N-AS; 3.2E+00 μM", "result": 28, "unit": "%"}, {"measurement": "Test/Control (%) at Drug Concentration", "setting": "NBXF SK-N-AS; 3.2E+01 μM", "result": 19, "unit": "%"}, {"measurement": "Test/Control (%) at Drug Concentration", "setting": "NBXF SK-N-AS; 3.2E−01 μM", "result": 36, "unit": "%"}, {"measurement": "Test/Control (%) at Drug Concentration", "setting": "NBXF SK-N-AS; 3.2E−02 μM", "result": 84, "unit": "%"}, {"measurement": "Test/Control (%) at Drug Concentration", "setting": "NBXF SK-N-AS; 3.2E−03 μM", "result": 89, "unit": "%"}, {"measurement": "pIC50", "setting": "[2]; read-out: absolute geometric mean IC50", "result": 6.54}, {"measurement": "pIC50", "setting": "[2]; read-out: relative geometric mean IC50", "result": 6.55}, {"measurement": "Test/Control (%) at Drug Concentration", "setting": "SXFS RH-41; RH-41, 1.0E+00 μM", "result": 5, "unit": "%"}, {"measurement": "Test/Control (%) at Drug Concentration", "setting": "SXFS RH-41; RH-41, 1.0E+01 μM", "result": 6, "unit": "%"}, {"measurement": "Test/Control (%) at Drug Concentration", "setting": "SXFS RH-41; RH-41, 1.0E+02 μM", "result": 1, "unit": "%"}, {"measurement": "Test/Control (%) at Drug Concentration", "setting": "SXFS RH-41; RH-41, 1.0E−01 μM", "result": 81, "unit": "%"}, {"measurement": "Test/Control (%) at Drug Concentration", "setting": "SXFS RH-41; RH-41, 1.0E−02 μM", "result": 105, "unit": "%"}, {"measurement": "Test/Control (%) at Drug Concentration", "setting": "SXFS RH-41; RH-41, 3.2E+00 μM", "result": 5, "unit": "%"}, {"measurement": "Test/Control (%) at Drug Concentration", "setting": "SXFS RH-41; RH-41, 3.2E+01 μM", "result": 4, "unit": "%"}, {"measurement": "Test/Control (%) at Drug Concentration", "setting": "SXFS RH-41; RH-41, 3.2E−01 μM", "result": 17, "unit": "%"}, {"measurement": "Test/Control (%) at Drug Concentration", "setting": "SXFS RH-41; RH-41, 3.2E−02 μM", "result": 93, "unit": "%"}, {"measurement": "Test/Control (%) at Drug Concentration", "setting": "SXFS RH-41; RH-41, 3.2E−03 μM", "result": 95, "unit": "%"}]}
